Experiment: Antagonist activity at CCR2 in human PBMCs assessed as inhibition of MCP1-induced chemotaxis

| Compound | IC50 |
| --- | --- |
| CSc1ccc(C(=O)NC2CC(N)CCC2NC(=O)CNC(=O)c2cc(C(F)(F)F)ccc2N)cc1 (racemic) [(+/-)-2-amino-N-(2-(4-amino-2-(4-(methylthio)benzamido)cyclohexylamino)-2-oxoethyl)-5-(trifluoromethyl)benzamide] | 13.5 nM |
| CN(C)C1CCC(NC(=O)CNC(=O)c2cccc(C(F)(F)F)c2)C(NCc2ccc3[nH]ccc3c2)C1 (racemic) [(+/-)-N-(2-(2-((1H-indol-5-yl)methylamino)-4-(dimethylamino)cyclohexylamino)-2-oxoethyl)-3-(trifluoromethyl)benzamide] | 23 nM |
| CSc1ccc(CNC2CC(N(C)C)CCC2NC(=O)CNC(=O)c2cccc(C(F)(F)F)c2)cc1 (racemic) [(+/-)-N-(2-(4-(dimethylamino)-2-(4-(methylthio)benzylamino)cyclohexylamino)-2-oxoethyl)-3-(trifluoromethyl)benzamide] | 22.5 nM |

More lines, in order of falling IC50, values ahead:

| IC50 | Compound |
| --- | --- |
| 41.4 nM | COc1ccc(CNC2CC(N(C)C)CCC2NC(=O)CNC(=O)c2cccc(C(F)(F)F)c2)cc1 (racemic) [(+/-)-N-(2-(4-(dimethylamino)-2-(4-methoxybenzylamino)cyclohexylamino)-2-oxoethyl)-3-(trifluoromethyl)benzamide] |
| 17.4 nM | CC(=O)Nc1ccc(CNC2CC(N(C)C)CCC2NC(=O)CNC(=O)c2cccc(C(F)(F)F)c2)cc1 (racemic) [(+/-)-N-(2-(2-(4-acetamidobenzylamino)-4-(dimethylamino)cyclohexylamino)-2-oxoethyl)-3-(trifluoromethyl)benzamide] |
| 12.6 nM | Cc1ccc(CNC2CC(N(C)C)CCC2NC(=O)CNC(=O)c2cccc(C(F)(F)F)c2)cc1 (racemic) [(+/-)-N-(2-(4-(dimethylamino)-2-(4-methylbenzylamino)cyclohexylamino)-2-oxoethyl)-3-(trifluoromethyl)benzamide] |
| 5.1 nM | CSc1ccc(C(=O)NC2CC(NC(=O)OCc3ccccc3)CCC2NC(=O)CNC(=O)c2cccc(C(F)(F)F)c2)cc1 (racemic) [(+/-)-benzyl3-(4-(methylthio)benzamido)-4-(2-(3-(trifluoromethyl)benzamido)acetamido)cyclohexylcarbamate] |
